Laboratory results as given in PubChem BioAssay AID248 (DTP/NCI, 2004).
“And” between values parts separate entries of the source, which are not always exact repeats. Identical values can stand only once. Inconclusive results and toxic doses are left out. Rule as the data show it: active = T/C of 150% or more; inactive = T/C below 125%.

Tested on: L1210 leukemia ip in BDF1 mice, survival T/C
Test: NCI In Vivo Anticancer Drug Screen. Data for tumor model L1210 Leukemia (intraperitoneal) in B6D2F1 (BDF1) mice
Conditions: endpoint: mean survival time, higher = longer survival
How it was run: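 Mice bearing the transplanted tumor received compound or vehicle. Survival of the treated group was divided by that of the vehicle-treated control group to give the ratio.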

[1] = dose: 100.0 mg/kg/injection, schedule: Q04DX003 (ip), vehicle: Klucel (hydroxypropylcellulose) (HPC)
[2] = dose: 200.0 mg/kg/injection, schedule: Q04DX003 (ip), vehicle: Klucel (hydroxypropylcellulose) (HPC)
[3] = dose: 400.0 mg/kg/injection, schedule: Q04DX003 (ip), vehicle: Klucel (hydroxypropylcellulose) (HPC)
[4] = dose: 100.0 mg/kg/injection, schedule: Q01DX001 (ip), vehicle: carboxymethylcellulose (CMC)
[5] = dose: 200.0 mg/kg/injection, schedule: Q01DX001 (ip), vehicle: carboxymethylcellulose (CMC)
[6] = dose: 400.0 mg/kg/injection, schedule: Q01DX001 (ip), vehicle: carboxymethylcellulose (CMC)
[7] = dose: 100.0 mg/kg/injection, schedule: Q04DX003 (ip), vehicle: saline with Tween-80
[8] = dose: 200.0 mg/kg/injection, schedule: Q04DX003 (ip), vehicle: saline with Tween-80
[9] = dose: 100.0 mg/kg/injection, schedule: Q01DX009 (ip), vehicle: saline with Tween-80
[10] = dose: 200.0 mg/kg/injection, schedule: Q01DX009 (ip), vehicle: saline with Tween-80
[11] = dose: 400.0 mg/kg/injection, schedule: Q01DX009 (ip), vehicle: saline with Tween-80
[12] = dose: 100.0 mg/kg/injection, schedule: Q04DX003 (ip), vehicle: saline
[13] = dose: 200.0 mg/kg/injection, schedule: Q04DX003 (ip), vehicle: saline
[14] = dose: 400.0 mg/kg/injection, schedule: Q04DX003 (ip), vehicle: saline
[15] = dose: 100.0 mg/kg/injection, schedule: Q01DX009 (ip), vehicle: saline
[16] = dose: 200.0 mg/kg/injection, schedule: Q01DX009 (ip), vehicle: saline
[17] = dose: 400.0 mg/kg/injection, schedule: Q01DX009 (ip), vehicle: saline
[18] = dose: 100.0 mg/kg/injection, schedule: Q04DX002 (ip), vehicle: saline with Tween-80
[19] = dose: 200.0 mg/kg/injection, schedule: Q04DX002 (ip), vehicle: saline with Tween-80

Measured: T/C

COc1cc2ccccc2cc1C(=O)NN
inactive: dose: 75.0 mg/kg/injection, schedule: Q04DX003 (ip), vehicle: Klucel (hydroxypropylcellulose) (HPC) 94 % of control | dose: 150.0 mg/kg/injection, schedule: Q04DX003 (ip), vehicle: Klucel (hydroxypropylcellulose) (HPC) 102 % of control | dose: 300.0 mg/kg/injection, schedule: Q04DX003 (ip), vehicle: Klucel (hydroxypropylcellulose) (HPC) 97 % of control

Cc1nc(N)[nH]c(=O)c1NC(=O)CBr
inactive: dose: 50.0 mg/kg/injection, schedule: Q01DX001 (ip), vehicle: Klucel (hydroxypropylcellulose) (HPC) 100 % of control | dose: 100.0 mg/kg/injection, schedule: Q01DX001 (ip), vehicle: Klucel (hydroxypropylcellulose) (HPC) 104 % of control

O=C(COc1cc(Cl)c(Cl)cc1Cl)Nc1ccccc1Br
inactive: dose: 100.0 mg/kg/injection, schedule: Q04DX002 (ip), vehicle: Klucel (hydroxypropylcellulose) (HPC) 95 % of control | dose: 200.0 mg/kg/injection, schedule: Q04DX002 (ip), vehicle: Klucel (hydroxypropylcellulose) (HPC) 98 % of control | dose: 400.0 mg/kg/injection, schedule: Q04DX002 (ip), vehicle: Klucel (hydroxypropylcellulose) (HPC) 106 % of control

O=C(CN1C(=O)c2ccccc2C1=O)OC(c1ccccc1)c1ccccc1
inactive: dose: 100.0 mg/kg/injection, schedule: Q01DX009 (ip), vehicle: Klucel (hydroxypropylcellulose) (HPC) 102 % of control | [1] 98 % of control | dose: 200.0 mg/kg/injection, schedule: Q01DX009 (ip), vehicle: Klucel (hydroxypropylcellulose) (HPC) 104 % of control | [2] 96 % of control | dose: 400.0 mg/kg/injection, schedule: Q01DX009 (ip), vehicle: Klucel (hydroxypropylcellulose) (HPC) 104 % of control | [3] 96 % of control

O=C(c1ccc(O)c(C(=O)O)c1)c1ccc(O)c(C(=O)O)c1
inactive: [4] 95 % of control | [5] 95 % of control | [6] 101 % of control

O=C(O)CCS(=O)(=O)c1ccc(N(CCCl)CCCl)cc1
inactive: [7] 107 % of control | [8] 102 % of control | dose: 400.0 mg/kg/injection, schedule: Q04DX003 (ip), vehicle: saline with Tween-80 105 % of control

Nc1ccccc1CCc1ccccc1N
inactive: [9] 98 % of control | [10] 98 % of control | [11] 94 % of control

CCOC(=O)/C=C/c1c(OC)cc(OC)cc1OC
inactive: dose: 100.0 mg/kg/injection, schedule: Q01DX009 (ip), vehicle: other 97 % of control | [12] 101 % of control | dose: 200.0 mg/kg/injection, schedule: Q01DX009 (ip), vehicle: other 106 % of control | [13] 101 % of control | dose: 400.0 mg/kg/injection, schedule: Q01DX009 (ip), vehicle: other 94 % of control | [14] 93 % of control

CC(=O)NCC(C)C
inactive: [15] 101 % of control | [16] 108 % of control | [17] 105 % of control

Cc1ccc(SSSc2ccc(C)cc2[N+](=O)[O-])c([N+](=O)[O-])c1
inactive: dose: 50.0 mg/kg/injection, schedule: Q04DX002 (ip), vehicle: saline with Tween-80 88 % of control | [18] 88 % of control | [19] 98 % of control

O=S(=O)(O)c1ccccc1/C=N\N=C\c1ccccc1S(=O)(=O)O
inactive: [15] 107 % of control | [12] 107 % of control | [16] 112 % of control | [13] 107 % of control | dose: 265.0 mg/kg/injection, schedule: Q04DX003 (ip), vehicle: saline 107 % of control | [17] 105 % of control | [14] 104 % of control | dose: 600.0 mg/kg/injection, schedule: Q04DX003 (ip), vehicle: saline 93 % of control

CSc1ccc(/C=N/NC(N)=S)c(SC)n1
inactive: [1] 98 % of control | [2] 98 % of control | [3] 96 % of control

Nc1c(Oc2cccc(C[N+]3(CCOS(=O)(=O)O)CC3)c2)cc(O)c2c1C(=O)c1ccccc1C2=O
inactive: [4] 96 % of control | [5] 93 % of control

Cc1cccc(C(=O)Cl)c1[N+](=O)[O-]
inactive: dose: 50.0 mg/kg/injection, schedule: Q01DX001 (ip), vehicle: carboxymethylcellulose (CMC) 95 % of control | [4] 93 % of control | [5] 90 % of control | [6] 95 % of control

COC(=O)c1cc(NC(=O)c2ccccc2F)cc(C(=O)OC)c1
inactive: dose: 100.0 mg/kg/injection, schedule: Q01DX009 (ip), vehicle: carboxymethylcellulose (CMC) 88 % of control | dose: 200.0 mg/kg/injection, schedule: Q01DX009 (ip), vehicle: carboxymethylcellulose (CMC) 90 % of control | dose: 400.0 mg/kg/injection, schedule: Q01DX009 (ip), vehicle: carboxymethylcellulose (CMC) 91 % of control

C[n+]1ccccc1/C=C/c1ccc2cccc(O)c2n1
inactive: dose: 2.0 mg/kg/injection, schedule: Q01DX015 (ip), vehicle: saline 95 % of control | dose: 4.0 mg/kg/injection, schedule: Q01DX015 (ip), vehicle: saline 95 % of control | dose: 8.0 mg/kg/injection, schedule: Q01DX015 (ip), vehicle: saline 94 % of control | dose: 16.0 mg/kg/injection, schedule: Q01DX015 (ip), vehicle: saline 101 % of control | dose: 32.0 mg/kg/injection, schedule: Q01DX015 (ip), vehicle: saline 97 % of control | dose: 75.0 mg/kg/injection, schedule: Q01DX001 (ip), vehicle: saline 102 % of control

Cc1cccc(C)c1NC(=O)Nc1cccc2ccccc12
inactive: dose: 100.0 mg/kg/injection, schedule: Q01DX009 (ip), vehicle: gum acacia 93 % of control | dose: 100.0 mg/kg/injection, schedule: Q04DX003 (ip), vehicle: gum acacia 98 % of control | dose: 200.0 mg/kg/injection, schedule: Q04DX003 (ip), vehicle: gum acacia 95 % of control | dose: 400.0 mg/kg/injection, schedule: Q01DX009 (ip), vehicle: gum acacia 94 % of control | dose: 400.0 mg/kg/injection, schedule: Q04DX003 (ip), vehicle: gum acacia 91 % of control

CC(Oc1ccccc1)C(=O)NC(=S)Nc1ccc(Cl)cc1 (stereo not drawn)
inactive: dose: 50.0 mg/kg/injection, schedule: Q01DX001 (ip), vehicle: saline with Tween-80 97 % of control | dose: 50.0 mg/kg/injection, schedule: Q01DX009 (ip), vehicle: saline with Tween-80 97 % of control and 98 % of control and 92 % of control | dose: 50.0 mg/kg/injection, schedule: Q04DX003 (ip), vehicle: saline with Tween-80 98 % of control | dose: 100.0 mg/kg/injection, schedule: Q01DX001 (ip), vehicle: saline with Tween-80 97 % of control | [9] 97 % of control and 98 % of control and 101 % of control | [7] 97 % of control | dose: 200.0 mg/kg/injection, schedule: Q01DX001 (ip), vehicle: saline with Tween-80 92 % of control | [8] 109 % of control

O=C1CCCCC/C1=C1\C(=O)Nc2ccc(Br)cc21
inactive: [9] 107 % of control | [18] 105 % of control | [10] 100 % of control | [19] 105 % of control | [11] 93 % of control | dose: 400.0 mg/kg/injection, schedule: Q04DX002 (ip), vehicle: saline with Tween-80 97 % of control

O=C(O)c1cc(Cl)ccc1O
inactive: dose: 100.0 mg/kg/injection, schedule: Q04DX002 (ip), vehicle: other 100 % of control | dose: 200.0 mg/kg/injection, schedule: Q04DX002 (ip), vehicle: other 103 % of control

CCN(CC[n+]1ccccc1)c1ccccc1 (tested in a mixture with another compound)
inactive: dose: 50.0 mg/kg/injection, schedule: Q01DX001 (ip), vehicle: saline 103 % of control

CC[N+](CC)(CC)CCCCCC[N+](CC)(CC)CC
inactive: dose: 3.15 mg/kg/injection, schedule: Q01DX009 (ip), vehicle: water 113 % of control | dose: 6.25 mg/kg/injection, schedule: Q01DX009 (ip), vehicle: water 103 % of control | dose: 6.25 mg/kg/injection, schedule: Q04DX003 (ip), vehicle: saline 103 % of control | dose: 12.5 mg/kg/injection, schedule: Q01DX009 (ip), vehicle: water 100 % of control and 103 % of control | dose: 12.5 mg/kg/injection, schedule: Q04DX003 (ip), vehicle: saline 104 % of control
